Measurements: patent publication US20110160055A1, “Imidazole and Triazole Compounds as Fungicides” (BASF SE, priority 2008, published 2011)

Experiments:
Phakopsora pachyrhizi [1] = test: Example G1: curative activity against soybean rust, greenhouse, sprayed two days after the 24 h incubation; assay type: in vivo; details: potted soybean seedlings, 150 ppm aqueous preparation sprayed two days after incubation, rated after a further 10 days; untreated plants 90% infected
Protocol: (§1) Subsequently, it was made up to 100 ml with water. This stock solution was diluted with the solvent/emulsifier/water mixture described to the active compound concentration indicated below. Alternatively to this, the active compounds were used as a commercially available ready-to-use solution and diluted with water to the active compound concentration indicated. Curative activity against soybean rust caused by Phakopsora pachyrhizi Leaves of potted soybean seedlings were inoculated with a spore suspension of soybean rust (Phakpsora pachyrhizi). […] During this time, the spores germinated and the germ tubes penetrated into the leaf tissue. Infected plants were then cultivated further in a greenhouse at temperatures between 23 and 27° C. and 60 to 80% relative atmospheric humidity. After two days, the plants were sprayed to run off point with the active compound solution described above at the active compound concentration stated below. After the spray coating had dried on, the test plants were cultivated in a greenhouse at temperatures between 23 and 27° C. and 60 to 80% relative atmospheric humidity for a further 10 days. The extent of the rust fungus development on the leaves was then determined visually in % infection.

Phakopsora pachyrhizi [2] = test: Example G2: curative activity against soybean rust, greenhouse, sprayed directly after the 24 h incubation; assay type: in vivo; details: potted soybean seedlings, 150 ppm aqueous preparation sprayed after 24 h incubation, rated after a further 14 days; untreated plants 90% infected
Protocol: as §1, with “then” for “then cultivated further in a greenhouse at temperatures between 23 and 27° C. and 60 to 80% relative atmospheric humidity. After two days, the plants were”, “further 14” for “further 10”

Row | SMILES | infection (extent of rust fungus development on the leaves, visual) (Phakopsora pachyrhizi [1]) [%] | infection (extent of rust fungus development on the leaves, visual) (Phakopsora pachyrhizi [2]) [%]
1 | CC(COc1ccccc1Cl)=C(C)CC(C(O)C(C)(C)C)n1cncn1 (centres unmarked) [I.A6b] | 0 | 
2 | CC(COc1cccc(Cl)c1Cl)=C(C)CC(C(O)C(C)(C)C)n1cncn1 (centres unmarked) [I.A14a] |  | 0
